This is an account of results in patent US20220127297A1, “Novel Antibacterial 3"-Derivatives Of 4,6-Disubstituted 2,5-Dideoxystreptamine Aminoglycoside Antibiotics” (AGILeBiotics B.V., priority 2018, published 2022).

What all share (test): MIC 90, resistant ATCC strains of the ESKAPE panel
Holding throughout (format): cell-based

The subject of one experiment is S. aureus ATCC BAA-1717. The following applies: Staphylococcus aureus, MRSA. The source says:
(§1) 3.3 Protocol for MIC Determination (ATCC Strains)
(§2) Tested reference compounds. Amikacin sulfate (Cat. No. 01693, Chem-Impex), Gentamicin sulfate (Cat. No. G4918, Sigma Aldrich), Azithromycin (Cat. No. 1046056, USP), Ceftazidime Pentahydrate (Cat. No. 1098130, USP), Ciprofloxacin (Cat. No. 1134313, USP), Meropenem (Cat. No. 1392454, USP), Rifampicin (Cat. No. R0079, TCI), Tobramycin (Cat. No. 1667508, USP), Vancomycin (Cat. No. 1709007 USP).
(§3) Microbial strains. Staphylococcus aureus ATCC 29213, Staphylococcus aureus ATCC BAA-1717, Escherichia coli ATCC BAA-1025, Klebsiella pneumoniae ATCC BAA-1705, Klebsiella pneumoniae ATCC BAA-2524, Pseudomonas aeruginosa ATCC 27853, Pseudomonas aeruginosa ATCC BAA-2108, Acinetobacter baumannii ATCC BAA-1800.
(§4) Culture media and equipment. BBL™ Mueller Hinton Broth (REF 275730, Lot. 7009699, Becton Dickinson), Mueller Hinton Agar 2 (Ref. No. 97580-500G-F, Lot. No. BCBV4646, Sigma), Dulbecco's Modified Eagle's Medium (DMEM) (Cat. No. 41966-029, Gibco), Minimum Essential Medium (MEM) (Cat. No. 42360-024, Gibco), Fetal bovine serum (FBS) (Cat. No. F7524, Sigma), Non-essential amino acids (NEAA) (100×, Cat. No. 11140-035, Gibco), Sodium Pyruvate (100 mM, 100×, Cat. No. 11360-039, Gibco), Staurosporine (Cat. No. B50188, Biotrend), Cellstar 96-well plates U-bottom (Cat. No. 650180, Lot. No. E14123EB, Greiner Bio-one), CellTiter-Glo (Cat. No. G7573, Promega), 96-well plate V-bottom (Cat. No. 651201, Greiner), 96-well clear plate, U-bottom, (Cat. No. 650180, Greiner), 96-well white plate with clear bottom (Cat. No. 655098, Greiner), 96-well deep well plate 1 mL (Cat. No. 278606, Nunc), Sodium Pyruvate (100 mM, 100×, Gibco, Cat #11360-039), Incubator (Binder), Laminar flow (Thermo Scientific), BioPhotometer (Eppendorf); DEN-1B (McFarland Densitometer, Biosan); McFarland standards (polymer microparticle suspension, Biosan).
(§5) Compound preparation. The test compounds and reference antibiotics were prepared according to CLSI guidelines (Clinical and Laboratory Standards Institute (CLSI); Methods for dilution antimicrobial susceptibility tests for bacteria that grow aerobically; approved standard—ninth edition, M07-A9, Vol. 32, No. 2, 2012) as 5 mg/mL stock solutions in DMSO. Out of these DMSO solutions, 43.5 μL was transferred to 1656.5 μL of MH media in a deep well plate. Out of these working solutions 100 μL was transferred to wells in the third column of 96-well plates. Plates were previously filled with 50 μL of MH media in all wells except for the wells in the third column. After compound and antibiotic addition, 50 μL was transferred from the third to the fourth column, then from the fourth to the fifth and so on. In this manner, the compounds and antibiotics were plated in 96-well plate in serial two-fold dilutions giving a final concentration range of 64-0.125 μg/mL.
(§6) Preparation of microorganisms. Designations used for clinical isolates were from the Fidelta strain collection bank. Microorganisms used were all revived from skim milk storage at −70° C. by plating them on MH agar plates. The following day the single colony of each microorganism was again streaked on fresh agar plates. The next day, using the direct colony suspension method, broth solutions that achieve turbidity equivalent to 0.5 McFarland standard for each microorganism were prepared. […] Out of these suspensions, actual inoculums were prepared by diluting them 100× with MH media giving a final microorganism count of 2-8×10^5 CFU/mL. For each strain of microorganisms, 20 mL of these inoculum solutions were prepared. From the second to the twelfth column of 96-well plates, 50 μL of these solutions were transferred per well. To the first column, 50 μL per well of pure growth media was added. In this manner the first column was used as sterility control of media, the second column was used as control of microorganism's growth and the rest of the plate was used for MIC determination. All plates were incubated for 16-24 h at 37° C. […]

Experiment [1] concerns P. aeruginosa ATCC BAA-2108. The note with it: Pseudomonas aeruginosa, ATCCBAA2108, MDR.
From the text: as §1, §2, §3, §4, §5, §6

The test system of experiment [2] is K. pneumoniae ATCC BAA-1705. The note with it: Klebsiella pneumoniae, ATCCBAA1705, KPC.
From the text: as §1, §2, §3, §4, §5, §6

In experiment [3] the test system is K. pneumoniae ATCC BAA-2524. The following applies: Klebsiella pneumoniae, ATCCBAA2524, OXA-48.
From the text: as §1, §2, §3, §4, §5, §6

Experiment [4] concerns A. baumannii ATCC BAA-1800. The following applies: Acinetobacter baumannii, ATCCBAA1800, MDR.
From the text: as §1, §2, §3, §4, §5, §6

SMILES strings stand for the structures. Values after ≈ are worked out from the molar mass of the structure shown.

On to `N=C(NC[C@@H]1CNCCO1)NC1[C@@H](O)C(OC2[C@@H](F)[C@H](O[C@H]3OC(CN)[C@@H](O)CC3N)C(N)C[C@H]2NC(=O)[C@@H](O)CCN)O[C@H](CO)[C@H]1O` (stereo partly drawn) [ABX5040, Tobra-AHB-F-Gua (S) morpholin-2-yl methyl], for which the MIC90 amounted to 0.5 µg/mL (≈ 0.702 µM) in the experiment with S. aureus ATCC BAA-1717; 8 µg/mL (≈ 11.2 µM) in experiment [1]; 8 µg/mL (≈ 11.2 µM) in experiment [2]; 0.5 µg/mL (≈ 0.702 µM) in experiment [3]; 32 µg/mL (≈ 45 µM) in experiment [4].

Turning to `N=C(NCCN)NC1C(O)[C@@H](CO)OC(OC2C(F)[C@H](O[C@H]3OC(CN)[C@@H](O)CC3N)C(N)C[C@H]2NC(=O)[C@@H](O)CCN)[C@@H]1O` (some centres unmarked) [ABX5020, Tobra-AHB-F-Gua-2-amino-ethyl], the MIC90 in the experiment with S. aureus ATCC BAA-1717 stood at 0.25 µg/mL (≈ 0.381 µM); in experiment [1] it was 2 µg/mL (≈ 3.05 µM); in experiment [2] it was 8 µg/mL (≈ 12.2 µM); in experiment [3], 0.5 µg/mL (≈ 0.763 µM); in experiment [4], 32 µg/mL (≈ 48.8 µM).

In the case of `N=C(N)NC1C(O)[C@@H](CO)OC(OC2C(F)[C@H](O[C@H]3OC(CN)[C@@H](O)CC3N)C(N)C[C@H]2NC(=O)[C@@H](O)CCN)[C@@H]1O` (some centres unmarked) [ABX5006, Tobra-AHB-F-Gua], the MIC90 was 0.5 µg/mL (≈ 0.816 µM) with S. aureus ATCC BAA-1717; 4 µg/mL (≈ 6.53 µM) in experiment [1]; 2 µg/mL (≈ 3.26 µM) in experiment [2]; less than 0.125 µg/mL in experiment [3]; 16 µg/mL (≈ 26.1 µM) in experiment [4].

As for `N=C(NC[C@@H]1CCNC1)NC1[C@@H](O)C(OC2[C@@H](F)[C@H](O[C@H]3OC(CN)[C@@H](O)CC3N)C(N)C[C@H]2NC(=O)[C@@H](O)CCN)O[C@H](CO)[C@H]1O` (stereo partly drawn) [ABX5039, Tobra-AHB-F-Gua (R) pyrrolidine-3-ylmethyl], the MIC90 against S. aureus ATCC BAA-1717 was 0.5 µg/mL (≈ 0.719 µM); in experiment [1], 8 µg/mL (≈ 11.5 µM); in experiment [2], 4 µg/mL (≈ 5.75 µM); in experiment [3], 0.5 µg/mL (≈ 0.719 µM); in experiment [4] it was 16 µg/mL (≈ 23 µM).

On to `CNCCNC(=N)NC1[C@@H](O)C(OC2[C@@H](F)[C@H](O[C@H]3OC(CN)[C@@H](O)CC3N)C(N)C[C@H]2NC(=O)[C@@H](O)CCN)O[C@H](CO)[C@H]1O` (some centres unmarked) [ABX5038, Tobra-AHB-F-Gua 2-(methylamino)ethyl], for which the MIC90 amounted to 0.5 µg/mL (≈ 0.747 µM) in the experiment on S. aureus ATCC BAA-1717; 4 µg/mL (≈ 5.97 µM) in experiment [1]; 8 µg/mL (≈ 11.9 µM) in experiment [2]; 0.5 µg/mL (≈ 0.747 µM) in experiment [3]; 32 µg/mL (≈ 47.8 µM) in experiment [4].

As to `N=C(NCCO)NC1[C@@H](O)C(OC2[C@@H](F)[C@H](O[C@H]3OC(CN)[C@@H](O)CC3N)C(N)C[C@H]2NC(=O)[C@@H](O)CCN)O[C@H](CO)[C@H]1O` (some centres unmarked) [ABX5029, Tobra-AHB-F-Gua 2-hydroxy-ethyl], the MIC90 with S. aureus ATCC BAA-1717 worked out at 0.5 µg/mL (≈ 0.761 µM); in experiment [1], 4 µg/mL (≈ 6.09 µM); in experiment [2], 4 µg/mL (≈ 6.09 µM); in experiment [3], 0.25 µg/mL (≈ 0.381 µM); in experiment [4], 16 µg/mL (≈ 24.4 µM).

Take `N=C(NC[C@@H]1CCCN1)NC1[C@@H](O)C(OC2[C@@H](F)[C@H](O[C@H]3OC(CN)[C@@H](O)CC3N)C(N)C[C@H]2NC(=O)[C@@H](O)CCN)O[C@H](CO)[C@H]1O` (stereo partly drawn) [ABX5026, Tobra-AHB-F-Gua (S) pyrrolidine-2-yl-methyl]: the MIC90 is 0.5 µg/mL (≈ 0.719 µM) against S. aureus ATCC BAA-1717; 8 µg/mL (≈ 11.5 µM) in experiment [1]; 4 µg/mL (≈ 5.75 µM) in experiment [2]; 0.5 µg/mL (≈ 0.719 µM) in experiment [3]; 32 µg/mL (≈ 46 µM) in experiment [4].

Regarding `N=C(NC[C@H]1CCNC1)NC1[C@@H](O)C(OC2[C@@H](F)[C@H](O[C@H]3OC(CN)[C@@H](O)CC3N)C(N)C[C@H]2NC(=O)[C@@H](O)CCN)O[C@H](CO)[C@H]1O` (stereo partly drawn) [ABX5042, Tobra-AHB-F-Gua (S) pyrrolidine-3-ylmethyl], the MIC90 is 0.5 µg/mL (≈ 0.719 µM) in the experiment with S. aureus ATCC BAA-1717; 8 µg/mL (≈ 11.5 µM) in experiment [1]; 4 µg/mL (≈ 5.75 µM) in experiment [2]; 0.5 µg/mL (≈ 0.719 µM) in experiment [3]; 32 µg/mL (≈ 46 µM) in experiment [4].

Regarding `N=C(N)NC1[C@@H](O)C(OC2[C@@H](F)[C@H](O[C@H]3OC(CN)[C@@H](O)[C@H](O)C3N)C(N)C[C@H]2NC(=O)[C@@H](O)CCN)O[C@H](CO)[C@H]1O` (some centres unmarked) [ABX4006, KanaB-AHB-F-Gua], the MIC90 in the experiment with S. aureus ATCC BAA-1717 was 4 µg/mL (≈ 6.36 µM); in experiment [1] it was 16 µg/mL (≈ 25.5 µM); in experiment [2] it was 2 µg/mL (≈ 3.18 µM); in experiment [3] it was less than 0.125 µg/mL; in experiment [4], 16 µg/mL (≈ 25.5 µM).

As for `NCC[C@H](O)C(=O)N[C@@H]1C[C@H](N)[C@@H](O[C@H]2O[C@H](CN)[C@@H](O)[C@H](O)[C@H]2O)[C@H](O)[C@H]1O[C@H]1O[C@H](CO)[C@@H](O)[C@H](N)[C@H]1O` [Amikacin, amikacin, reference compound], the MIC90 was found to be 4 µg/mL (≈ 6.83 µM) against S. aureus ATCC BAA-1717; 16 µg/mL (≈ 27.3 µM) in experiment [1]; 32 µg/mL (≈ 54.6 µM) in experiment [2]; 0.5 µg/mL (≈ 0.854 µM) in experiment [3]; 64 µg/mL (≈ 109 µM) in experiment [4].
